Results from patent US7365154B2, “Peptides antagonistic to an anti-angiogenic antibody and uses therefor” (Centocor, Inc., priority 2003, dated 2008).
“Also recorded” adds a separate entry of the source.

Legend:
[1] = system: A375.S2 cells (human melanoma cells); test: Flow cytometry of CNTO95 binding to surface integrins of A375.S2 cells with or without peptides; type: cell-based; conditions: CNTO95 only 10 ug/ml, no peptide
Method: For the detection of surface integrins, A375.S2 cells (human melanoma cells) were harvested, rinsed, suspended in unsupplemented RPMI media. The antibody, CNTO95, was incubated at a final concentration of 10 ug/ml with or without peptides at the concentrations given in Table 1 for 1 hr. Then, the cell solution was added and incubated for an additonal 60 minutes on ice followed by addition of PE-labeled goat anti-human antibody IgG-Fc (10 ug/ml). Absence of primary antibody or substitution of primary antibody with isotype matched antibody served as negative controls. Cells were immediately analyzed with a FACS Scan II flow cytometer (Becton Dickinson, Mountain View, Calif.). […] For simplicity, the mean channel fluorescence for each peak was used as the relative staining value (Table 5).

CEN2319 coated plates = test: ELISA of other antibodies on CEN2319 coated plates; type: binding; conditions: negative control antibodies
Method: (§1) To verify the binding activity of synthetic peptides to CNTO95 mAb, ELISAs were performed using peptide-coated plates. PRO-Bind ELISA plates (Falcon) were coated with 100 μl (100 μg/ml) of either CEN 2319, CEN2322 or PBS buffer. Peptide-charged ELISA plates were incubated with 100 μl of various concentrations of CNTO95 mAb for 2 hours at 37° C., and the wells then were washed with PBS plus 0.5% Tween 20 (PBST). Binding was detected with a 1:5,000 dilution of peroxidase-conjugated goat anti-human IgG, Fc gamma fragment antibody (Jackson) and color development with 3,3′,5,5′-tetramethyl-benzidine dihydrochloride (TMB). The reaction was detected by reading the absorbance at 450 nm. PBS-coated wells were used as background control. […] Another set of negative control was performed using mAb CNTO1275 (FIG. 4C). The binding signal is negative.

[2] = system: M21, human melanoma cells; test: Cell adhesion assay on vitronectin coated plates, CNTO95 with peptides; type: cell-based; conditions: FIG. 7
Method: For cell adhesion assays, Microtiter plates (Linbro-Titertek, ICN Biomedicals, Inc) were coated at 4° C. overnight with vitronectin (1 mg/ml). Immediately before use plates were rinsed with PBS and blocked for 1 hour with 1% BSA/PBS (pH 7.4). Adherent cells (M21, human melanoma cells) were labeled with Calcein AM fluorescent dye (Molecular Probes, Eugene, Oreg.) according to the manufacturer's instructions, harvested, washed twice, and suspended in 0.1% BSA in DMEM medium. Various concentration of Antibodies were incubated with peptides for 1 hrs. Cell density was adjusted to 5×10^5/ml and they were incubated with antibody and peptide solution for 15 min at 37° C. The cell-antibody mixture was added to wells (100 μl per well) and incubated for 1 h at 37° C. Plates were rinsed twice with PBS to remove unbound cells and adhesion was measured in a fluorescence plate reader (Fluoroskan) at 485-538 nm. Cell adhesion to BSA-coated wells served as a negative control. Isotype matched antibodies served as a negative control.

CNTO95 mAb = test: ELISA for CNTO95 binding to synthetic peptide-coated plates; set-up: species or system human; conditions: plates coated with 100 μg/ml peptide, absorbance at 450 nm
Method: as §1

[3] = system: CNTO95 mAb binding to integrin αVβ3; test: Competitive ELISA on plates coated with integrin αVβ3; set-up: species or system human; conditions: peptide 0 to 200 μg/ml
Method: (§2) Competitive ELISA on microtiter plates coated with integrins αVβ3 or αVβ5 were carried out to evaluate the binding specificity for CEN2319 peptide to CNTO95 mAb. 100 ul of 5 μg/ml either αVβ3 or αVβ5 (Chemicon, Temacula, Calif.) was coated on the ELISA plates at […] over night. Then, 100 μl of 2 μg/ml CNTO95 was pre-incubated at room temperature for 30 minutes with various concentration peptides (100 μl), ranging from 0 to 200 μg/ml. The peptide-antibody mixtures were then added to the integrin-coated microwells. Following incubation at 37° C. for 2 hours, the plates were washed thoroughly, and bound CNTO95 was detected using peroxidase-conjugated goat anti-human IgG, Fc gamma fragment antibody (1:5,000 dilution), followed by substrate addition as above.

[4] = system: CNTO95 mAb binding to integrin αVβ5; test: Competitive ELISA on plates coated with integrin αVβ5; set-up: species or system human; conditions: peptide 0 to 200 μg/ml
Method: as §2

CNTO95 [5] = test: Positional substitution analysis: peptides spotted on nitrocellulose membrane probed with CNTO95; type: binding, human; set-up: key: +++: very strong; ++: strong; +: equivalent; ±: weak; Blank: negative; conditions: CEN2319 with one position substituted, + = equivalent
Method: In order to further understand the contribution of each amino acid residue in the binding, systematic substitution at each position were made and tested. The binding analysis was carried out by spotting the various peptides on a nitrocellulose membrane and probing with CNTO95 followed by HRP-conjugated goat-anti-human Fc antibody and color developed using a peroxidase substrate.

CNTO95 [6] = test: Titration microcalorimetry of synthetic peptides with CNTO95; type: binding, human
Method: Titration microcalorimetry is a technique used to measure equilibrium binding affinity by monitoring the enthalpy of binding as a function of titrant added to second molecule at fixed temperature. To determine binding affinities and stoichiometries of synthetic peptides for CNTO95, titration calorimetry experiments were carried out with a Microcal (Amherst, Mass.) MCS isothermal titration calorimeter. Protein concentrations were measured by absorbance at 280 nm. Aliquots of peptide were titrated into a fixed concentration of CNTO95 at 3 μM in Dulbecco's PBS. Heats of binding are monitored with each injection. Peptides were added until the observed heats approach the heats of diluted peptides into buffer. Calorimetry data were analyzed with Microcal ORIGIN software according to a single-site binding model in each case (Wiseman et al., Anal. Biochem. 179: 131-137, 1989). The model includes an equilibrium binding constant (Kd), a molar binding enthalpy change (ΔH) and a molar binding ratio for the binding reaction at 25° C. Table 3 gives the calculated CNTO95 binding properties of synthetic peptides from titration calorimetry data.

Substance: CNTO95: fully human IgG1, kappa monoclonal antibody recognizing integrins αVβ3 and αVβ5
- Mean Channel Fluorescence [1]: 89.7

Substance: CNTO1275: another human mAb to an unrelated antigen
- antibody binding to CEN2319 coated plates (CEN2319 coated plates): negative

Substance: DFRSWWDLEE (Phage Library Derived Sequence) [CEN2553, alternate antagonist peptide, 10-mer]
- effect on the inhibition of cellular adhesion by CNTO95 to vitronectin coated plates [2]: indistinguishable from the peptide CEN2319

Substance: DFRSWWDLSGYR [CEN2319]
- CNTO95 mAb binding to peptide-coated plates (CNTO95 mAb): recognized specifically; also recorded: specific binding
- competition with CNTO95 binding to αVβ3 (in words) [3]: inhibits
- competition with CNTO95 binding to αVβ5 (in words) [4]: significant inhibition; also recorded: inhibits
- Intensity (relative density of color at each spot) (CNTO95 [5]; listed as D1D): +
- Intensity (relative density of color at each spot) (CNTO95 [5]; listed as D7D): ++
- Intensity (relative density of color at each spot) (CNTO95 [5]; listed as F2F): +
- Intensity (relative density of color at each spot) (CNTO95 [5]; listed as G10G): +
- Intensity (relative density of color at each spot) (CNTO95 [5]; listed as L8L): ++
- Intensity (relative density of color at each spot) (CNTO95 [5]; listed as R3R): +
- Intensity (relative density of color at each spot) (CNTO95 [5]; listed as R12R): +
- Intensity (relative density of color at each spot) (CNTO95 [5]; listed as S4S): +
- Intensity (relative density of color at each spot) (CNTO95 [5]; listed as S9S): +
- Intensity (relative density of color at each spot) (CNTO95 [5]; listed as W5W): ++
- Intensity (relative density of color at each spot) (CNTO95 [5]; listed as W6W): +
- Intensity (relative density of color at each spot) (CNTO95 [5]; listed as Y11Y): +

Substance: DYRTA ADTTGLQ (DYRTAADTTGLQ; PEPTIDE (1)..(12) Residues 564 to 575 inclusive of human alpha V integrin subunit protein; listed as Homo sapiens) [CEN2322]
- CNTO95 mAb binding to peptide-coated plates (CNTO95 mAb): did not bind
- competition with CNTO95 binding to αVβ3 (in words) [3]: did not compete
- competition with CNTO95 binding to αVβ5 (in words) [4]: did not compete
- Comments (binding to CNTO95 by calorimetry) (CNTO95 [6]): no evidence for CEN2322 peptide binding to CNTO95 mAb

Substance: SPLFXPW [flanked by cysteine residues which form a disulfide bond]
- CNTO95 mAb binding to peptide-coated plates (CNTO95 mAb): no specific binding was detected
